Results published in paper PMC12298648, “An Evaluation of the Cytotoxicity and Safety Profile of Usnic Acid for a Broad Panel of Human Cancers and Normal Cells with Respect to Its Enantiospecificity” (Molecules, 2025).
pIC50: −log10 of the molar value. In brackets after ≈: the same amount, converted by molar mass. Like-named read-outs stand apart in the source and are kept apart here.

Assays:
LNCaP cells = system: LNCaP cells; design: method as in PMID 30101414; conditions: 48 h, cited from earlier work
C8D1A = experiment: MTT viability assay, normal astrocytes C8D1A; format: cell-based, murine; conditions: C8D1A, 24 h
Source text: (§1) Cell lines of different origins were used in the study and grouped as follows: prostate panel (human prostate carcinomas: DU145, derived from metastatic site: brain; grade IV PC3, derived from metastatic site: bone; LNCaP, derived from the metastatic site: lymph node; prostate epithelial, PNT2), colon panel (colorectal adenocarcinomas: HT29, originating from a primary tumor; Duke’s type C DLD-1, with the potential to lymph node metastasis; highly metastatic HCT116; colon epithelial cells CCD 841 CoN), thyroid panel (follicular thyroid carcinoma FTC133, anaplastic thyroid carcinoma 8505C, papillary thyroid carcinoma TPC-1, normal thyroid follicular epithelial Nthy-ori 3–1), breast panel (ER-positive breast adenocarcinoma MCF7, ER-negative breast adenocarcinoma MDA-MB-231, breast epithelial MCF10A), brain panel (neuroblastoma SH-SY5Y, glioblastoma U-87 MG, murine astrocytes C8D1A). All cell lines were purchased from Merck (Darmstadt, Germany).
(§2) Cells were grown under standard conditions (37 °C, 5% CO2) and culture media (DMEM/F12 for PNT2, PC3, FTC133, 8505 C, MDA-MB-231, TPC-1; DMEM Low Glucose for DU145; DMEM High Glucose for HCT116, DLD-1, SH-SY5Y, U87MG, C8D1A; MEM with NEAA for MCF7; MEM for CCD 841 CoN; McCoy’s for HT29; RPMI1640 with sodium pyruvate for LNCaP; DMEM/F12 with 20 ng/mL epidermal growth factor (EGF), 10 μg/mL insulin, 0.5 μg/mL hydrocortisone, 100 ng/mL cholera toxin) for MCF10A), supplemented with 10% fetal bovine serum (FBS) or 5% donor horse serum for MCF10A, and 1% antibiotics solution (10,000 U penicillin and 10 mg streptomycin/mL). The tested substances were prepared as 10 mg/mL stock solutions in DMSO and further diluted in the culture media to the working concentrations. Cells were treated with UA enantiomers at the concentration range of 0–50 µg/mL. The influence of DMSO on cell viability was also examined, with the final concentration […], and no toxic effect was noted.
(§3) The cells were seeded onto 96-well plates at a density of 1.5 × 10^4 cells/well. After 24 h UA enantiomers were added. Cell viability was determined after 24, 48, and 72 h by the MTT assay, as described previously. Doxorubicin was used as a reference cytostatic drug. All analyses were performed in triplicate; cell viability was expressed as % of control, untreated cells (mean ± SD), and IC50 values (concentration at which cell viability is inhibited by 50%), if possible.

[1] = system: SH-SY5Y neuroblastoma cells; conditions: cited from earlier work
MDA-MB-231 cells = conditions: cited from earlier work; for IC50: recalculated from µM by the authors; for pIC50: read-out: IC50
WM793 cells = system: WM793 cells; design: method as in PMID 34577645; conditions: WM793, 48 h; cited from earlier work
U87MG cells = conditions: cited from earlier work; for CC50: 24 h
DLD1 cells = conditions: DLD1, 48 h, cited from earlier work
HCT116 cells = conditions: cited from earlier work; for IC50: recalculated from µM by the authors; for pIC50: read-out: IC50
HTB140 cells = system: HTB140 cells; design: method as in PMID 34577645; conditions: HTB140, 48 h (implied); cited from earlier work
A375 cells = system: A375 cells; design: method as in PMID 34577645; conditions: A375, 48 h; cited from earlier work
MDA-MB-231 = experiment: MTT viability assay, MDA-MB-231 breast cancer cells; format: cell-based, human; conditions: for IC50: Homo sapiens; for Cell viability: MDA-MB-231, 24 h
Source text: as §1, §2, §3
The selectivity index (SI) was calculated, if possible, by dividing the IC50 value obtained for non-cancerous cells line by the IC50 values obtained for appropriate cancer cell line, as described previously. […] The values above 3 indicate good selectivity.

T98G = system: T98G; design: method as in PMID 34959693; conditions: cited from earlier work
A172 = system: A172; design: method as in PMID 34959693; conditions: cited from earlier work
HaCaT keratinocytes = system: HaCaT keratinocytes; design: method as in PMID 34500657; conditions: cited from earlier work
[2] = recalculated from µM by the authors

Compound | Cell viability (C8D1A; 2.5 µg/mL) | Cell viability (C8D1A; 5 µg/mL) | Cell viability (C8D1A; 10 µg/mL) | Cell viability (C8D1A; 20 µg/mL) | Cell viability (C8D1A; 30 µg/mL) | Cell viability (C8D1A; 40 µg/mL) | Cell viability (C8D1A; 50 µg/mL) | IC50 (WM793 cells) [µg/mL] | IC50 (MDA-MB-231; MDA-MB-231, 48 h) [µg/mL] | IC50 (MDA-MB-231; MDA-MB-231, 72 h) [µg/mL] | Cell viability (MDA-MB-231; 2.5 µg/mL) | Cell viability (MDA-MB-231; 5 µg/mL) | Cell viability (MDA-MB-231; 10 µg/mL) | Cell viability (MDA-MB-231; 20 µg/mL) | Cell viability (MDA-MB-231; 30 µg/mL) | Cell viability (MDA-MB-231; 40 µg/mL) | Cell viability (MDA-MB-231; 50 µg/mL) | further results
CC(=O)C1=C(O)C=C2Oc3c(C(C)=O)c(O)c(C)c(O)c3[C@@]2(C)C1=O [UA(+), (+)-usnic acid] | 110.33 % of control | 110.17 % of control | 96.58 % of control | 91.17 % of control | 88.67 % of control | 86.17 % of control | 106.42 % of control | 30.05 (≈ 87.3 µM) | > 50 | 15.8 (≈ 45.9 µM) | 100.36 % of control | 95.55 % of control | 87.62 % of control | 81.99 % of control | 77.62 % of control | 67.93 % of control | 69.24 % of control | pIC50 (LNCaP cells; read-out: IC50): 4.11; IC50 (LNCaP cells; [2]): 26.7 µg/mL; Cell viability ([1]; at 2 µg/mL): 42%; Cell viability ([1]; at 10 µg/mL): 57%; IC50 (MDA-MB-231 cells; MDA-MB-231, 24 h): 13.23 µg/mL; pIC50 (MDA-MB-231 cells; MDA-MB-231, 24 h): 4.42; IC50 (MDA-MB-231 cells; MDA-MB-231, 72 h): 4.5 µg/mL; pIC50 (MDA-MB-231 cells; MDA-MB-231, 72 h): 4.88; CC50 (U87MG cells; read-out: CC50): 47 µM; CC50 (U87MG cells; [2]): 16 µg/mL; IC50 (U87MG cells; 48 h): 41.5 µg/mL (≈ 121 µM); IC50 (DLD1 cells; [2]): 34.4 µg/mL; pIC50 (DLD1 cells; read-out: IC50): 4.00; IC50 (HCT116 cells; HCT116, 48 h): 34.4 µg/mL; pIC50 (HCT116 cells; HCT116, 48 h): 4.00; IC50 (HCT116 cells; HCT116, 72 h): 49.24 µg/mL; pIC50 (HCT116 cells; HCT116, 72 h): 3.84; IC50 (HTB140 cells): 14.72 µg/mL (≈ 42.8 µM); IC50 (A375 cells): 11.84 µg/mL (≈ 34.4 µM); selectivity index (SI) (MDA-MB-231; IC50 MCF10A / IC50 MDA-MB-231, 72 h): 2.83
CC(=O)C1=C(O)C=C2Oc3c(C(C)=O)c(O)c(C)c(O)c3[C@]2(C)C1=O [UA(−), (−)-usnic acid] | 100.83 % of control | 99.17 % of control | 95.67 % of control | 96.00 % of control | 88.42 % of control | 90.58 % of control | 104.75 % of control | 52.09 (≈ 151 µM) | 41.4 (≈ 120 µM) | 20.2 (≈ 58.7 µM) | 96.79 % of control | 92.06 % of control | 88.24 % of control | 85.58 % of control | 74.48 % of control | 68.12 % of control | 70.55 % of control | IC50 (T98G): 13 µg/mL (≈ 37.8 µM); IC50 (A172): 31.5 µg/mL (≈ 91.5 µM); IC50 (HaCaT keratinocytes; 48 h): 80.82 µg/mL (≈ 235 µM); IC50 (HaCaT keratinocytes; 72 h): 70.12 µg/mL (≈ 204 µM)
